What was measured:
[1] = cited from earlier work
HIV-1 = assay: Proof-of-concept trial: HIV-1 RNA in plasma of treatment-naive HIV-infected subjects (ICR, ICD); format: in vivo, human; conditions: for period for which the decrease of HIV-1 RNA persists off-drug: 7-day / 17-dose course, responsive cohort; for ICR relative to pre-treatment level: regimen-compliant responsive sub-group (Subjects 1, 5, 20, 24)
Description: Cell-free supernatants were used for p24 and HIV-1 RNA measurements. p24 core antigen in the supernatant was quantified by ELISA (Retrotek HIV-1 p24®; ZeptoMetrix Corp.; Buffalo, NY). HIV-1 RNA copy number in the supernatant of PBMC cultures and in plasma of trial subjects enrolled in the exploratory deferiprone trial was determined with a PCR-based and FDA-approved assay (Amplicor HIV-1 Monitor®; Roche Diagnostics Corp.; Indianapolis, IN). For clinical samples, the assay was used per the Standard Specimen Processing Procedure (sensitivity limit 400 copies/ml); for cell culture samples, the assay was used in both the Standard Specimen Processing and the UltraSensitive Specimen Processing Procedure (sensitivity limit 50 copies/ml). If not specified further, the term “log10” designates the amount of HIV-1 RNA in the dimensions [log10 / ml]. The Roche Amplicor HIV-1 DNA Test (Roche Diagnostics Corp.; Indianapolis, IN) was used for detection of HIV-1 DNA with the primer pair SK431/462, which amplifies a highly conserved region of the gag genome of HIV-1 subtype B DNA. […] Apoptotic DNA fragmentation was quantified flow-cytometrically, using a terminal deoxynucleotide transferase dUTP nick end-labeling (TUNEL) assay (APO-BRDU™; Phoenix Flow Systems; San Diego, CA). All experiments and assays were performed at least in duplicate.
Eligible for enrollment were volunteers of both genders, between 18 and 60 years old, healthy or HIV-infected with CD4 count ≥ 300/mm^3, viral load of ≥ 10,000 copies/ml, and absence of active infectious disease; AIDS-defining condition; febrile illness; liver or kidney disease; hypersensitivity to test material; and medication requirement. The protocol involved a screening visit; a pharmacokinetic and antiretroviral study requiring admission to a specialized Phase I research unit for a week of on-drug treatment, with multiple blood draws from a peripheral vein after oral intake of the first deferiprone dose, either 33 mg/kg or 50 mg/kg, and at least three repeat blood draws (first stage of protocol); an off-drug observation period of eight weeks, which comprised at least two repeat visits (second stage of protocol); and an exit visit. Enrollment complied with the applicable standard-of-care specified in the ‘Clinical Guidelines for the Management of HIV & AIDS in Adults and Adolescents’, National Department of Health, Republic of South Africa. Primary parameters included safety and tolerability (e.g. vital signs, laboratory variables, cardiac monitoring by ECG) and antiretroviral activity (e.g. RNA copies of HIV-1). Secondary parameters included pharmacokinetic variables (e.g. peak serum concentration) in serum, drawn from a peripheral vein at fixed times (0, 0.5, 1, 1.5, 2, 3, 4, 6, 9, 12) after the ingestion of the first dose on Day 1 of the study. The concentration of the nonconjugated, chelation-competent form of deferiprone in serum was determined by UV detection at 280 nm, after separation via reversed-phase HPLC under isocratic conditions. The lower limit of deferiprone quantitation was 1.466 μM, or 0.204 μg/ml. HIV-1 RNA was measured as described and used as log10-transformed parameter in all calculations.
26 consecutive subjects were randomly enrolled in the IRB-approved proof-of-concept trial and gave written informed consent to be studied (Supporting Information, S2 Text); recruitment of trial subjects commenced in November 2006 and follow-up terminated in April 2008.

[2] = after 8 weeks off-drug, P = 0.003

In the case of `Cc1c(O)c(=O)ccn1C` [deferiprone, 3-hydroxy-1,2-dimethylpyridin-4-one], the “half-life in peripheral blood” value ([1]; human) is listed as “approximately 2 hour”, the peak serum level ([1]; in vivo, 65.2 mg/kg) is listed as “up to 450 µM” and the “difference in peak serum concentration (cmax) between UGT1A6-typed subjects” value ([1]; in vivo, po) is listed as “up to 35%”. The “difference in total drug exposure over time (AUC0 - ∞) between UGT1A6-typed subjects” value ([1]; in vivo, po) was 38%, the “protocol-completing subjects with no viral load change” value (HIV-1; 99 mg group (33 mg/kg/dose orally three times per day)) was 66% and the “ICR after the one-week treatment” value (HIV-1; 99 mg group, Subjects 1, 2, 5, achieved threshold and had a viral response) was -0.36 log10. The “ICR after the one-week treatment” value (HIV-1; 99 mg group, Subjects 4, 6, 8, did not achieve the ≥150 μM threshold) was “+0.23 log10”, the “ICD between threshold-achieving responders and non-achievers” value (HIV-1; 99 mg group, one-week treatment, P = 0.004) was 0.59 log10 and the “within-subject variability of HIV-1 RNA reached after the one-week treatment” value (HIV-1; 99 mg/kg group) was -0.45 log10. For the same compound, the “within-subject variability of HIV-1 RNA reached after the one-week treatment” value (HIV-1; 150 mg group) was -0.53 log10, the “protocol-completing subjects with no viral load change” value (HIV-1; 150 mg group (50 mg/kg/dose orally three times per day)) was 25% and the “ICR after the one-week treatment” value (HIV-1; 150 mg group, Subjects 20, 22, 24, cmax ≥150 μM) was -0.39 log10. The “period for which the decrease of HIV-1 RNA persists off-drug” value (HIV-1) was 8 weeks, the “period for which the decrease of HIV-1 RNA persists off-drug” value (HIV-1; listed as Deferiprone) was “at least 8 weeks” and the “off-drug retention of the HIV-1 RNA reduction as multiple of the drug's half-life” value (HIV-1; 8 weeks off-drug after 17 doses) was “over 670 times”. The “average level of HIV-1 RNA” value (HIV-1; 'decrease' cohort, after 4 weeks off-drug) was 4.44 log10, the “average level of HIV-1 RNA” value (HIV-1; 'decrease' cohort, after 8 weeks off-drug) was 4.52 log10 and the “average level of HIV-1 RNA” value (HIV-1; 'decrease' cohort, after 7 days (4.90 log10 initially)) was 4.53 log10. The “average level of HIV-1 RNA” value (HIV-1; 'no-decrease' cohort, after 4 weeks off-drug) was 4.83 log10, the “average level of HIV-1 RNA” value (HIV-1; 'no-decrease' cohort, after 8 weeks off-drug) was 4.70 log10 and the “average level of HIV-1 RNA” value (HIV-1; 'no-decrease' cohort, after 7 days (4.53 log10 initially)) was 4.74 log10. For the same compound, the “ICR after 8 weeks off-drug” value (HIV-1; DTD 'decrease' cohort) was -0.31 log10, the “ICR at the end of the first stage (S1, Day 7 vs Day 1)” value (HIV-1; DTD 'decrease' cohort, N = 6) was -0.37 log10 and the “ICR after 8 weeks off-drug” value (HIV-1; DTD 'no-decrease' cohort) was “+0.17 log10”. The “ICR at the end of the first stage (S1, Day 7 vs Day 1)” value (HIV-1; DTD 'no-decrease' cohort, N = 5) was “+0.21 log10”, the “ICR at the end of 8 weeks off-drug” value (HIV-1; Group A, cmax ≥150 μM) was -0.28 log10 and the “intra-cohort response (ICR), HIV-1 RNA Day 7 relative to Day 1” value (HIV-1; Group A, cmax ≥150 μM on either dosage, N = 7, 7 days on-drug) was -0.27 log10. The “subjects who achieved the threshold (cmax ≥150 μM) and showed a decline in viral load” value (HIV-1; Group A, one-week treatment) was 6 of the 7, the “viral load in the 4 subjects who did not achieve the threshold” value (HIV-1; Group B, one-week treatment) was “did not show a decline in viral load” and the “ICR at the end of 8 weeks off-drug” value (HIV-1; Group B, threshold-failing) was “+0.24 log10”. The “change in viral load during the one-week treatment” value (HIV-1; Subject 19, 150 mg group, cmax 128 μM) was “+0.02 log10”, the “ICD Group A vs Group B” value (HIV-1; [2]) was 0.52 log10 and the “ICD regimen-compliant 'decrease' sub-group vs 'no-decrease' cohort” value (HIV-1; [2]) was 0.61 log10. For the same compound, the “ICD 'decrease' vs 'no-decrease' cohort” value (HIV-1; after 8 weeks off-drug, P = 0.008) was 0.48 log10, the “intercohort difference (ICD) Group A vs Group B” value (HIV-1; after one week on-drug) was 0.44 log10 and the “ICD 'decrease' vs 'no-decrease' cohort” value (HIV-1; end of first stage S1, P = 0.0001) was 0.58 log10. For the same compound, the “intra-cohort response (ICR), HIV-1 RNA Day 7 relative to Day 1” value (HIV-1; human, in vivo) was “+0.17 log10”, the “ICR relative to pre-treatment level” value (HIV-1; after 8 weeks off-drug) was -0.38 log10 and the “ICR relative to pre-treatment level” value (HIV-1; after 7 days on-drug) was -0.40 log10.

From PMC4871512, “Drug-Based Lead Discovery: The Novel Ablative Antiretroviral Profile of Deferiprone in HIV-1-Infected Cells and in HIV-Infected Treatment-Naive Subjects of a Double-Blind, Placebo-Controlled, Randomized Exploratory Trial” (PLoS ONE, 2016)
